Columns and labels:
CCL11 = assay: Cytokine mRNA expression analysis by quantitative real-time PCR (CCL11); assay type: cell-based; details: Beas-2B cells
Experimental: FIG. 1A-1B illustrates immunomodulatory effect of CMP on transcription of cytokine. Beas-2B cells were starved with serum free medium for 24 h, followed by stimulation with refold 5 μM ECP or 5 μM CMP or co-treatment with 5 μM ECP and 5 μM CMP at 37° C. for (A) 6 h and (B) 12 h, respectively. The mRNA quantities of CCL11, CCL24 and CCL26 were determined by real-time PCR. Beas-2B cells without protein treatment were used as control. […] The data represented at least three independent experiments and the error bar was shown as standard deviation (SD).
For inflammatory cytokine expression analysis, Beas-2B cells were stimulated with three different conditions: 1) 5 μM ECP, 2) 5 μM CMP and 3) co-incubated with 5 μM ECP and 5 μM CMP at 37° C. for 6 and 12 h. After incubation, total RNAs were extracted with RNA TRIzol reagent (Invitrogen, Inc) and reverse transcribed with MoMLV-reverse transcriptase (Promega, Madison, Wis.). SYBR Green-based quantitative real-time PCR will be used to quantify the gene of interest, relative expression ratios of genes of interest were normalized to glyceraldehyde-3-phosphate dehydrogenase (GAPDH) transcripts. Changes in cytokine expression were measured by quantitative real-time PCR (qRT-PCR) employing the StepOne™ amplification and detection system (Life Technologies Corporation). Data were analyzed by application of the StepOne™ quantification program software (version 2.22, Life Technologies Corporation) and expressed as means±S.D. Significance analysis was carried out by a two-sample unequal variance t-test with two-tailed distribution (post test). Significance was set as P<0.05.
ECP, the best known marker protein of asthma, is involved in triggering cytokine expression in bronchial epithelial cells. Real-time PCR analysis was carried out to quantify expression levels of indicated cytokines upon treatment with recombinant ECP in the presence and absence of CMP Bronchial epithelial Beas-2B cells were separately cultured in serum-free medium in the presence of 5 μM ECP, 5 μM CMP and both 5 μM ECP and 5 μM CMP for 6 and 12 h to monitor cytokine and chemokine gene modulation using real-time quantitative PCR. Untreated Beas-2B cells incubated at the same condition for 6 h and 12 h were used as negative controls. Here variation of gene expression levels of chemokines including CCL11, CCL24 and CCL26 was analyzed.

human lung cancer A549 = assay: Transwell migration assay, A549; assay type: cell-based; details: 5 μM CMP pretreatment 30 min, 18 hours
Experimental: FIG. 10 illustrates Tumor migration inhibition by CMP. A549, H460 and mouse colon cancer cells were incubated with CMP at 37° C. for 30 min before adding to the top chamber of transwell membranes in 24-well dishes at a density of 2×10^4 cells/well. Data represented the mean±S.E. of triplicate samples from a representative experiment. The experiment was repeated at least three times with similar results
Cancer cell inhibition by CMP was performed in a 24-well Transwell chamber consisting of a cell culture insert (6.4 mm diameter, 8-1 μm pore polyethylene tetraphtalate membrane, [Becton Dickinson]) set in each well of a 24-well companion plate (Becton Dickinson). Briefly, 3×10^4 cancer cells were suspended and pretreated with 5 and 12.5 μM CMP for 30 min in a total volume of 200 μL. Cell suspensions were inoculated into the upper chamber of an insert, 5% fetal bovine serum (FBS) in medium as a chemoattractant was added to the plate well in the bottom chamber, and incubated for 18 hours in a humidified incubator at 37° C. with 5% CO2. The non-migratory cells on the upper membrane surface were removed with a cotton swab, and the migratory cells attached to the lower membrane surface were fixed with 4% paraformaldehyde and stained with 0.2% crystal violet. The number of migrated cells was counted in four randomly selected high power fields under microscope. […]

With NYRWRCKNQN (CMP) as the sequence, how does the “effect on chemokine gene expression (CCL11, CCL24, CCL26)” value (CCL11; 5 μM CMP alone, 6 and 12 h) read?
Its value is “no effect”.

And the “ECP-induced gene expression of CCL11” value (CCL11; co-treatment 5 μM ECP and 5 μM CMP, 6 h)?
The value was “significant reduction”.

What about the “decrease of migration activity” value (human lung cancer A549) of the same sequence?
The value was 60%.

From patent US9315544B2, “Method of treating eosinophilia by administering an immunomodulating peptide” (National Tsing Hua University, priority 2012, dated 2016)
